Laboratory results: patent US7919268B2, “Reducing sample turbidity in measurement of enzymatic activity in cell lysates” (Roche Diagnostics Operations, Inc., priority 2005, dated 2011)
Where a name gives a salt, the structure may show the parent alone. Read-outs that look alike come from different tables or passages of the source.

How the values were obtained:
LDH [1] = assay type: biochemical, human; settings: SDS 3% (v/v), sodium oxamate 15 mM, Triton X100 1% (v/v); for Absorption 0 min after adding stop reagent / Absorption 30 min after adding stop reagent / Absorption 120 min after adding stop reagent: 492 nm, lysate of 5000 cells, reaction time 5 min
[2] = tested on: human suspension cell line U 937; assay: Absorption of cells at 690 nm after treatment with different reagents; assay type: cell-based; settings: reagent final concentration 1% (v/v)
Experimental: The human suspension cell line U 937 was cultured in RPMI 1640 medium (Sigma Company) containing 10% foetal calf serum and 2 mM glutamine. The cells were then washed in fresh RPMI medium and adjusted to 25,000, 50,000 and 100,000 cells/100 μl. 100 μl thereof was in each case transferred to a 96-well standard microtitre plate. 50 μl RPMI medium containing the appropriate reagents was added by pipette to each of the cell solutions.
The absorption of each well was measured at a wavelength of 690 nm after 5 min and 75 min incubation.

LDH [3] = settings: 0.2 M HCl, Triton X100 1% (v/v)
Experimental: In another experiment HCl and NaOH were used as a stop reagent.
For this purpose cell-free lysates each of 1000 cells were used in an LDH test with the components from the Cytotoxicity Detection Kit (LDH) containing the modified dye solution. After a reaction time of 30 min different stop reagents were added to these mixtures and the absorption was monitored at 492 nm (the absorption maximum of reduced INT).

[4] = 492 nm, lysate of 1000 cells, reaction time 30 min

Compound	Absorption 0 min after adding stop reagent (LDH [1])	Absorption 30 min after adding stop reagent (LDH [1])	Absorption 120 min after adding stop reagent (LDH [1])	Termination of the LDH reaction (in words) (LDH [1])	Absorption after 5 min ([2]; 25 000 U 937 cells)	Absorption after 75 min ([2]; 25 000 U 937 cells)	Absorption after 5 min ([2]; 50 000 U 937 cells)	Absorption after 75 min ([2]; 50 000 U 937 cells)	Absorption after 5 min ([2]; 100 000 U 937 cells)	Absorption after 75 min ([2]; 100 000 U 937 cells)	Termination of the LDH reaction (in words) (LDH [3])	Absorption 0 min after adding stop reagent (LDH [3]; [4])	Absorption 30 min after adding stop reagent (LDH [3]; [4])	Absorption 120 min after adding stop reagent (LDH [3]; [4])
NC(=O)C(=O)[O-].[Na+] [sodium oxamate]	0.113	0.127	0.179	stop the LDH reaction										
CCCCCCCCCCCCOS(=O)(=O)[O-].[Na+] [SDS, sodium dodecyl sulphate]	0.113	0.113	0.105	stop the LDH reaction	0.002	0.003	0.006	0.006	0.010	0.010				
Cl [HCl]											suitable stop reagent	0.275	0.271	0.261
octylphenoxypolyethoxyethanol [Triton X100]					0.001	0.001	0.004	0.004	0.008	0.008				
CCCCCCCCCCCC[N+](C)(C)C.[Br-] [DTAB, dodecyltrimethylammonium bromide]					0.005	0.006	0.012	0.011	0.024	0.021				
CCCCCCCCCCCCCCCC[N+](C)(C)C.[Br-] [CTAB, cetyltrimethylammonium bromide]					0.006	0.003	0.031	0.014	0.025	0.018				
CCCCCCCCCCCCN(C)CC(=O)O [N-laurylsarcosine]					0.001	0.002	0.003	0.004	0.012	0.013				
